Reference: ChEMBL document CHEMBL3804830, “Efficient synthesis of new antiproliferative steroidal hybrids using the molecular hybridization approach” (Eur J Med Chem, 2016)
pIC50: −log10 of the molar value.

Key:
[1] = Antiproliferative activity against human U87 cells assessed as cell growth inhibition after 72 hrs by MTT assay; type: functional, cell-based, U-87MG ATCC; conditions: U-87 MG
[2] = Antiproliferative activity against human MGC803 cells assessed as cell growth inhibition after 72 hrs by MTT assay; type: functional, cell-based; conditions: MGC-803, 72 h
MCF7 = test: cells; conditions: Homo sapiens, MCF7, 72 h
Description: Antiproliferative activity against human MCF7 cells assessed as cell growth inhibition after 72 hrs by MTT assay

[3] = Antiproliferative activity against human EC109 cells assessed as cell growth inhibition after 72 hrs by MTT assay; type: functional, cell-based; conditions: ECa-109, 72 h
SH-SY5Y = test: Antiproliferative activity against human SH-SY5Y cells assessed as cell growth inhibition after 72 hrs by MTT assay; type: functional, cell-based

Cc1cc(=O)oc2cc(OCc3cn(CC(=O)O[C@H]4CC[C@@]5(C)C(=CC[C@@H]6[C@@H]5CC[C@]5(C)C(=O)CC[C@@H]65)C4)nn3)ccc12
pIC50 [1]: 4.32 | pIC50 [2]: < 3.89 | pIC50 (MCF7): < 3.89 | pIC50 [3]: < 3.89 | pIC50 (SH-SY5Y): 4.31

C[C@]12CC[C@H](OC(=O)Cn3cc(COc4ccc(C(=O)/C=C/c5ccc(Br)cc5)cc4)nn3)CC1=CC[C@@H]1[C@@H]2CC[C@]2(C)C(=O)CC[C@@H]12
pIC50 [1]: < 3.89 | pIC50 [2]: < 3.89 | pIC50 (MCF7): 3.95 | pIC50 [3]: 4.10 | pIC50 (SH-SY5Y): 4.14

C[C@]12CC[C@H](OC(=O)Cn3cc(COc4ccc(C(=O)/C=C/c5ccc(F)c(F)c5)cc4)nn3)CC1=CC[C@@H]1[C@@H]2CC[C@]2(C)C(=O)CC[C@@H]12
pIC50 [1]: < 3.89 | pIC50 [2]: < 3.89 | pIC50 (MCF7): 4.03 | pIC50 [3]: < 3.89 | pIC50 (SH-SY5Y): 4.38

C[C@]12CC[C@H](OC(=O)Cn3cc(COc4ccccc4[N+](=O)[O-])nn3)CC1=CC[C@@H]1[C@@H]2CC[C@]2(C)C(=O)CC[C@@H]12
pIC50 [1]: < 3.89 | pIC50 [2]: 4.29 | pIC50 (MCF7): 4.35 | pIC50 [3]: 4.30 | pIC50 (SH-SY5Y): 4.19

Cc1ccc(/C=C/C(=O)c2ccc(OCc3cn(CC(=O)O[C@H]4CC[C@@]5(C)C(=CC[C@@H]6[C@@H]5CC[C@]5(C)C(=O)CC[C@@H]65)C4)nn3)cc2)cc1
pIC50 [1]: < 3.89 | pIC50 [2]: < 3.89 | pIC50 (MCF7): 4.13 | pIC50 [3]: < 3.89 | pIC50 (SH-SY5Y): 4.30

C[C@]12CC[C@H](OC(=O)Cn3cc(CN4C(=O)C(=O)c5c(Cl)cccc54)nn3)CC1=CC[C@@H]1[C@@H]2CC[C@]2(C)C(=O)CC[C@@H]12
pIC50 [1]: 4.48 | pIC50 [2]: < 3.89 | pIC50 (MCF7): < 3.89 | pIC50 [3]: 3.91 | pIC50 (SH-SY5Y): 4.73

COc1ccc(NCc2cn(CC(=O)O[C@H]3CC[C@@]4(C)C(=CC[C@@H]5[C@@H]4CC[C@]4(C)C(=O)CC[C@@H]54)C3)nn2)cc1
pIC50 [1]: 4.02 | pIC50 [2]: 4.94 | pIC50 (MCF7): 4.67 | pIC50 [3]: 4.61 | pIC50 (SH-SY5Y): 4.16

C[C@]12CC[C@H](OC(=O)Cn3cc(Cn4cc(F)c(=O)n(Cc5cn(CC(=O)O[C@H]6CC[C@@]7(C)C(=CC[C@@H]8[C@@H]7CC[C@]7(C)C(=O)CC[C@@H]87)C6)nn5)c4=O)nn3)CC1=CC[C@@H]1[C@@H]2CC[C@]2(C)C(=O)CC[C@@H]12
pIC50 [1]: < 3.89 | pIC50 [2]: < 3.89 | pIC50 (MCF7): < 3.89 | pIC50 [3]: < 3.89 | pIC50 (SH-SY5Y): < 3.89

C[C@]12CC[C@H](OC(=O)Cn3cc(COc4ccc(/C=C/C(=O)c5ccccc5)cc4)nn3)CC1=CC[C@@H]1[C@@H]2CC[C@]2(C)C(=O)CC[C@@H]12
pIC50 [1]: < 3.89 | pIC50 [2]: < 3.89 | pIC50 (MCF7): < 3.89 | pIC50 [3]: 3.93 | pIC50 (SH-SY5Y): 4.12

O=c1c(F)cn(Cc2cn(Cc3ccccc3Cl)nn2)c(=O)n1Cc1cn(Cc2ccccc2Cl)nn1
pIC50 [1]: < 3.89 | pIC50 [2]: < 3.89 | pIC50 (MCF7): < 3.89 | pIC50 [3]: < 3.89 | pIC50 (SH-SY5Y): < 3.89

C[C@]12CC[C@H](OC(=O)Cn3cc(COc4ccc(Br)cc4)nn3)CC1=CC[C@@H]1[C@@H]2CC[C@]2(C)C(=O)CC[C@@H]12
pIC50 [1]: 4.52 | pIC50 [2]: 4.32 | pIC50 (MCF7): 4.03 | pIC50 [3]: 4.68 | pIC50 (SH-SY5Y): 4.64

C[C@]12CC[C@H](OC(=O)Cn3cc(CN4C(=O)C(=O)c5ccccc54)nn3)CC1=CC[C@@H]1[C@@H]2CC[C@]2(C)C(=O)CC[C@@H]12
pIC50 [1]: 4.34 | pIC50 [2]: < 3.89 | pIC50 (MCF7): < 3.89 | pIC50 [3]: < 3.89 | pIC50 (SH-SY5Y): 5.06

Cc1ccc(OCc2cn(CC(=O)O[C@H]3CC[C@@]4(C)C(=CC[C@@H]5[C@@H]4CC[C@]4(C)C(=O)CC[C@@H]54)C3)nn2)cc1
pIC50 [1]: 4.73 | pIC50 [2]: 4.67 | pIC50 (MCF7): 4.41 | pIC50 [3]: 4.62 | pIC50 (SH-SY5Y): 4.57

C[C@]12CC[C@H](OC(=O)Cn3cc(CN4C(=O)C(=O)c5cc(Cl)ccc54)nn3)CC1=CC[C@@H]1[C@@H]2CC[C@]2(C)C(=O)CC[C@@H]12
pIC50 [1]: 4.32 | pIC50 [2]: 4.24 | pIC50 (MCF7): < 3.89 | pIC50 [3]: 4.21 | pIC50 (SH-SY5Y): 5.14

C[C@]12CC[C@H](OC(=O)Cn3cc(COc4ccc(C(=O)/C=C/c5ccc([N+](=O)[O-])cc5)cc4)nn3)CC1=CC[C@@H]1[C@@H]2CC[C@]2(C)C(=O)CC[C@@H]12
pIC50 [1]: < 3.89 | pIC50 [2]: 4.00 | pIC50 (MCF7): < 3.89 | pIC50 [3]: < 3.89 | pIC50 (SH-SY5Y): < 3.89

O=c1[nH]cc(F)c(=O)[nH]1 [FLUOROURACIL]
pIC50 [1]: 5.25 | pIC50 [2]: 5.90 | pIC50 [3]: 5.50 | pIC50 (SH-SY5Y): 5.49

C[C@]12CC[C@H](OC(=O)Cn3cc(CNc4ccc(Br)cc4)nn3)CC1=CC[C@@H]1[C@@H]2CC[C@]2(C)C(=O)CC[C@@H]12
pIC50 [1]: 4.06 | pIC50 [2]: 4.71 | pIC50 (MCF7): 4.56 | pIC50 [3]: 4.43 | pIC50 (SH-SY5Y): 4.23

C[C@]12CC[C@H](OC(=O)Cn3cc(CNc4cccc([N+](=O)[O-])c4)nn3)CC1=CC[C@@H]1[C@@H]2CC[C@]2(C)C(=O)CC[C@@H]12
pIC50 [1]: < 3.89 | pIC50 [2]: 4.54 | pIC50 (MCF7): 4.34 | pIC50 [3]: 4.26 | pIC50 (SH-SY5Y): < 3.89

C[C@]12CC[C@H](OC(=O)Cn3cc(COc4ccc5ccc(=O)oc5c4)nn3)CC1=CC[C@@H]1[C@@H]2CC[C@]2(C)C(=O)CC[C@@H]12
pIC50 [1]: 4.36 | pIC50 [2]: < 3.89 | pIC50 (MCF7): < 3.89 | pIC50 [3]: < 3.89 | pIC50 (SH-SY5Y): 4.26

C[C@]12CC[C@H](OC(=O)Cn3cc(CN4C(=O)C(=O)c5cc(F)ccc54)nn3)CC1=CC[C@@H]1[C@@H]2CC[C@]2(C)C(=O)CC[C@@H]12
pIC50 [1]: 4.04 | pIC50 [2]: 4.23 | pIC50 (MCF7): < 3.89 | pIC50 [3]: < 3.89 | pIC50 (SH-SY5Y): 5.03

C[C@]12CC[C@H](OC(=O)Cn3cc(CN4C(=O)C(=O)c5c(Br)cccc54)nn3)CC1=CC[C@@H]1[C@@H]2CC[C@]2(C)C(=O)CC[C@@H]12
pIC50 [1]: 4.67 | pIC50 [2]: 4.58 | pIC50 (MCF7): < 3.89 | pIC50 [3]: 4.11 | pIC50 (SH-SY5Y): < 3.89

C[C@]12CC[C@H](OC(=O)Cn3cc(CN4C(=O)C(=O)c5cc(Br)ccc54)nn3)CC1=CC[C@@H]1[C@@H]2CC[C@]2(C)C(=O)CC[C@@H]12
pIC50 [1]: 4.41 | pIC50 [2]: 4.49 | pIC50 (MCF7): < 3.89 | pIC50 [3]: 4.36 | pIC50 (SH-SY5Y): 4.99

C[C@]12CC[C@H](OC(=O)Cn3cc(CN4C(=O)C(=O)c5cccc(Cl)c54)nn3)CC1=CC[C@@H]1[C@@H]2CC[C@]2(C)C(=O)CC[C@@H]12
pIC50 [1]: 4.68 | pIC50 [2]: 5.06 | pIC50 (MCF7): 4.88 | pIC50 [3]: 4.07 | pIC50 (SH-SY5Y): 4.84

C[C@]12CC[C@H](OC(=O)Cn3cc(COc4ccc(C(=O)/C=C/c5ccc(Cl)c(Cl)c5)cc4)nn3)CC1=CC[C@@H]1[C@@H]2CC[C@]2(C)C(=O)CC[C@@H]12
pIC50 [1]: < 3.89 | pIC50 [2]: < 3.89 | pIC50 (MCF7): < 3.89 | pIC50 [3]: < 3.89 | pIC50 (SH-SY5Y): 4.44

C[C@]12CC[C@H](OC(=O)Cn3cc(COc4ccc(/C=C/C(=O)c5ccc(F)cc5)cc4)nn3)CC1=CC[C@@H]1[C@@H]2CC[C@]2(C)C(=O)CC[C@@H]12
pIC50 [1]: < 3.89 | pIC50 [2]: < 3.89 | pIC50 (MCF7): 4.04 | pIC50 [3]: < 3.89 | pIC50 (SH-SY5Y): 4.33

C[C@]12CC[C@H](OC(=O)Cn3cc(COc4cc(=O)oc5ccccc45)nn3)CC1=CC[C@@H]1[C@@H]2CC[C@]2(C)C(=O)CC[C@@H]12
pIC50 [1]: 4.40 | pIC50 [2]: < 3.89 | pIC50 (MCF7): < 3.89 | pIC50 [3]: < 3.89 | pIC50 (SH-SY5Y): < 3.89
